According to paper PMC2823129 (Lipids, 2009):

Test system: mitochondrial GPAT (GPAT1-like)
Experiment: […]glycerol-3-phosphate incorporation into organic phase, liquid scintillation
Assay type: biochemical, Macrobrachium borellii
Conditions: read-out: apparent Km; mitochondrial fraction; 0.8 mM glycerol-3-phosphate, 4 mM MgCl2, 2 mg/ml BSA, 8 mM NaF, 1 mM DTT, 75 mM Tris-HCl pH 7.4, 30°C

CCCCCCCC/C=C\CCCCCCCC(=O)SCCNC(=O)CCNC(=O)[C@H](O)C(C)(C)COP(=O)(O)OP(=O)(O)OC[C@H]1O[C@@H](n2cnc3c(N)ncnc32)[C@H](O)[C@@H]1OP(=O)(O)O [oleoyl-CoA]
Km: 31.2 µM
